The text below walks through data of patent US20100068359A1, “PRESERVATIVE METHOD” (CONOPCO, INC., D/B/A UNILEVER, priority 2008, published 2010).

The structures appear in SMILES notation.

Assay [1] concerns APRY yeast. Kind of assay: APRY yeast challenge in YM broth with equal molar salts. The assay is classed as cell-based, Zygosaccharomyces bailii and/or Zygosaccharomyces rouxii. How it is done: • 1. The growth media of the Bidlas et al. reference was used (YM broth and stock pH (6.0). (Growth media—YMB, Sabourda, PDB • 2. Three salts (NaCl, KCl, NH4Cl) were added in a increasing level. […] The detailed salt amounts are shown in the Table 7 below. • 3. The target pH for all compositions was 5.5. • 4. The effects on APRY Yeast, instead of pathogens as in Bidlas et al. were studied. • 5. Inhibition was measured by CFUs (colony forming units) • 6. Dramatic increases in APRY yeast levels are observed after more than about two days.

The subject of assay [2] is APRY yeast. Kind of assay: Challenge study in full fat mayonnaise model, APRY yeast. The assay is classed as cell-based, Zygosaccharomyces bailii and/or Zygosaccharomyces rouxii. An excerpt:
• 1. […] Formula adjustments were made to keep aqueous acetic acid and sugar levels constant, i.e. % active/(% water+% active)×100, i.e., about 1.53% to about 1.54% aqueous acetic acid and about 6.32% to about 6.36% aqueous sugar. • 3. […] Analytical data supported that the per cent replacement targets were met, […] The results of the challenge study over a number of weeks were reported (see Challenge Data in the Tables 3, 4 and 5 below).

Assay [3] deals with Z. bailii.

On to `N.N.O=P(O)(O)O` [DAP, di-ammonium hydrogen phosphate], for which the “APRY yeast level in broth” value in assay [1] (0.51 N salt, day 0) was 17,600 CFUs; in assay [1] (0.51 N salt, day 1), 324,000 CFUs; in assay [1] (0.51 N salt, day 1½) it was 630,000 CFUs; in assay [1] (0.51 N salt, day ½), 8,100 CFUs; in assay [1] (1.03 N salt, day 0), 21,000 CFUs; in assay [1] (1.03 N salt, day 1), 10,200 CFUs. For the same compound, the “APRY yeast level in broth” value in assay [1] (1.03 N salt, day 1½) was 24,000 CFUs; in assay [1] (1.03 N salt, day 2), 250,000 CFUs; in assay [1] (1.03 N salt, day ½), 7,100 CFUs; in assay [1] (1.54 N salt, day 0), 6,000 CFUs; in assay [1] (1.54 N salt, day 1), 10,300 CFUs; in assay [1] (1.54 N salt, day 1½) it was 2,000 CFUs. The “APRY yeast level in broth” value in assay [1] (1.54 N salt, day 2) was 6,700 CFUs; in assay [1] (1.54 N salt, day 5), 120,900 CFUs; in assay [1] (1.54 N salt, day 6) it was 117,600 CFUs; in assay [1] (1.54 N salt, day 8) it was 820,000 CFUs; in assay [1] (1.54 N salt, day 11), 570,000 CFUs; in assay [1] (1.54 N salt, day 13), 141,000 CFUs. In addition, the “APRY yeast level in broth” value in assay [1] (1.54 N salt, day 14) is reported as 280,000 CFUs; in assay [1] (1.54 N salt, day ½), 13,000 CFUs; in assay [1] (2.05 N salt, day 0), 10,000 CFUs; in assay [1] (2.05 N salt, day 1), 11,500 CFUs; in assay [1] (2.05 N salt, day 1½) it was 6,000 CFUs; in assay [1] (2.05 N salt, day 2) it was 7,100 CFUs. In addition, the “APRY yeast level in broth” value in assay [1] (2.05 N salt, day 5) is on record as 980 CFUs; in assay [1] (2.05 N salt, day 6), 5,000 CFUs; in assay [1] (2.05 N salt, day 8), 2,500 CFUs; in assay [1] (2.05 N salt, day 11), 4,000 CFUs; in assay [1] (2.05 N salt, day 13), 1,600 CFUs; in assay [1] (2.05 N salt, day 14), 3,000 CFUs. Besides, the “APRY yeast level in broth” value in assay [1] (2.05 N salt, day ½) was 9,600 CFUs.
As to `[Cl-].[K+]` [KCl, potassium chloride], the “APRY yeast level in broth” value in assay [1] (0.51 N salt, day 0) is 3,800 CFUs; in assay [1] (0.51 N salt, day 1), 280,000 CFUs; in assay [1] (0.51 N salt, day ½), 14,200 CFUs; in assay [1] (1.03 N salt, day 0), 12,000 CFUs; in assay [1] (1.03 N salt, day 1), 78,000 CFUs; in assay [1] (1.03 N salt, day 1½), 772,000 CFUs. Further, the “APRY yeast level in broth” value in assay [1] (1.03 N salt, day ½) was 12,300 CFUs; in assay [1] (1.54 N salt, day 0), 13,800 CFUs; in assay [1] (1.54 N salt, day 1), 11,600 CFUs; in assay [1] (1.54 N salt, day 1½) it was 85,000 CFUs; in assay [1] (1.54 N salt, day ½), 7,900 CFUs; in assay [1] (2.05 N salt, day 0), 7,300 CFUs. The “APRY yeast level in broth” value in assay [1] (2.05 N salt, day 1) is recorded as 3,300 CFUs; in assay [1] (2.05 N salt, day 1½) it was 8,000 CFUs; in assay [1] (2.05 N salt, day 2), 68,000 CFUs; in assay [1] (2.05 N salt, day ½) it was 7,900 CFUs. The “growth of APRY yeast in the broth system” value in assay [1] (YM broth, target pH 5.5) was “does not inhibit the growth of APRY yeast”.
As for `Cl.N` [NH4Cl, ammonium chloride], the “Observation: APRY outgrowth / stability” value in assay [2] is given as “faster APRY die-off”. In addition, the “APRY yeast level in broth” value in assay [1] (0.51 N salt, day 0) was 10,200 CFUs; in assay [1] (0.51 N salt, day 1) it was 260,000 CFUs; in assay [1] (0.51 N salt, day 1½), 672,000 CFUs; in assay [1] (0.51 N salt, day ½), 11,700 CFUs; in assay [1] (1.03 N salt, day 0), 8,100 CFUs; in assay [1] (1.03 N salt, day 1), 32,000 CFUs. Moreover, the “APRY yeast level in broth” value is 14,000 CFUs in assay [1] (1.03 N salt, day 1½); 53,000 CFUs in assay [1] (1.03 N salt, day 2); 6,000 CFUs in assay [1] (1.03 N salt, day ½); 10,900 CFUs in assay [1] (1.54 N salt, day 0); 3,100 CFUs in assay [1] (1.54 N salt, day 1); 7,000 CFUs in assay [1] (1.54 N salt, day 1½). Further, the “APRY yeast level in broth” value in assay [1] (1.54 N salt, day 2) is 39,500 CFUs; in assay [1] (1.54 N salt, day 5), 2,200 CFUs; in assay [1] (1.54 N salt, day 6) it was 3,000 CFUs; in assay [1] (1.54 N salt, day 8) it was 2,900 CFUs; in assay [1] (1.54 N salt, day 11), 4,600 CFUs; in assay [1] (1.54 N salt, day 13), 40,000 CFUs. The “APRY yeast level in broth” value in assay [1] (1.54 N salt, day 14) was 84,000 CFUs; in assay [1] (1.54 N salt, day ½), 7,200 CFUs; in assay [1] (2.05 N salt, day 0), 8,900 CFUs; in assay [1] (2.05 N salt, day 1) it was 3,100 CFUs; in assay [1] (2.05 N salt, day 1½), 10,000 CFUs; in assay [1] (2.05 N salt, day 2), 36,100 CFUs. Also, the “APRY yeast level in broth” value is 700 CFUs in assay [1] (2.05 N salt, day 5); 700 CFUs in assay [1] (2.05 N salt, day 6); 1,600 CFUs in assay [1] (2.05 N salt, day 8); 400 CFUs in assay [1] (2.05 N salt, day 11); 600 CFUs in assay [1] (2.05 N salt, day 13); 800 CFUs in assay [1] (2.05 N salt, day 14). Further, in assay [1] (2.05 N salt, day ½), the “APRY yeast level in broth” value is on record as 5,800 CFUs.
On to `[Cl-].[Na+]` [NaCl, sodium chloride], for which the “APRY yeast level in broth” value in assay [1] (0.51 N salt, day 0) is reported as 13,100 CFUs; in assay [1] (0.51 N salt, day 1), 440,000 CFUs; in assay [1] (0.51 N salt, day ½) it was 4,300 CFUs; in assay [1] (1.03 N salt, day 0), 10,000 CFUs; in assay [1] (1.03 N salt, day 1), 3,200 CFUs; in assay [1] (1.03 N salt, day 1½) it was 7,000 CFUs. The “APRY yeast level in broth” value in assay [1] (1.03 N salt, day 2) is 29,000 CFUs; in assay [1] (1.03 N salt, day ½) it was 6,900 CFUs; in assay [1] (1.54 N salt, day 0) it was 13,200 CFUs; in assay [1] (1.54 N salt, day 1), 2,300 CFUs; in assay [1] (1.54 N salt, day 1½) it was 8,000 CFUs; in assay [1] (1.54 N salt, day 2), 3,900 CFUs. Moreover, the “APRY yeast level in broth” value was 2,740 CFUs in assay [1] (1.54 N salt, day 5); 1,840 CFUs in assay [1] (1.54 N salt, day 6); 3,600 CFUs in assay [1] (1.54 N salt, day 8); 3,300 CFUs in assay [1] (1.54 N salt, day 11); 2,900 CFUs in assay [1] (1.54 N salt, day 13); 3,500 CFUs in assay [1] (1.54 N salt, day 14). Besides, the “APRY yeast level in broth” value in assay [1] (1.54 N salt, day ½) was 3,800 CFUs; in assay [1] (2.05 N salt, day 0) it was 9,800 CFUs; in assay [1] (2.05 N salt, day 1), 2,700 CFUs; in assay [1] (2.05 N salt, day 1½) it was 7,000 CFUs; in assay [1] (2.05 N salt, day 2) it was 4,500 CFUs; in assay [1] (2.05 N salt, day 5), 1,730 CFUs. The “APRY yeast level in broth” value in assay [1] (2.05 N salt, day 6) was 2,110 CFUs; in assay [1] (2.05 N salt, day 8), 1,600 CFUs; in assay [1] (2.05 N salt, day 11), 700 CFUs; in assay [1] (2.05 N salt, day 13), 700 CFUs; in assay [1] (2.05 N salt, day 14) it was 800 CFUs; in assay [1] (2.05 N salt, day ½) it was 5,100 CFUs.
In the case of `[Ca+2].[Cl-].[Cl-]` [calcium chloride], in assay [3], the Z. bailii outgrowth entry was “enhance Z. bailii outgrowth”.
Same read-out and setting: the result for `[Cl-].[Cl-].[Mg+2]` [magnesium chloride] reads “enhance Z. bailii outgrowth”.
